Test results as given in ChEMBL document CHEMBL5678818, “Discovery of potent SOS1 inhibitors that block RAS activation via disruption of the RAS-SOS1 interaction” (Proc Natl Acad Sci U S A, 2019).

Assays:
[1] = target: T1, Guanine nucleotide exchange factor DBS (Homo sapiens, UniProt O15068); test: Inhibition of human DBS assessed as reduction in CDC42 activation preincubated for 1 min with CDC42 followed by DBS addition measured after 20 mins in presence of EDA-GTP-DY-647P1 by HTRF analysis
T1 sequence (O15068 whole entry): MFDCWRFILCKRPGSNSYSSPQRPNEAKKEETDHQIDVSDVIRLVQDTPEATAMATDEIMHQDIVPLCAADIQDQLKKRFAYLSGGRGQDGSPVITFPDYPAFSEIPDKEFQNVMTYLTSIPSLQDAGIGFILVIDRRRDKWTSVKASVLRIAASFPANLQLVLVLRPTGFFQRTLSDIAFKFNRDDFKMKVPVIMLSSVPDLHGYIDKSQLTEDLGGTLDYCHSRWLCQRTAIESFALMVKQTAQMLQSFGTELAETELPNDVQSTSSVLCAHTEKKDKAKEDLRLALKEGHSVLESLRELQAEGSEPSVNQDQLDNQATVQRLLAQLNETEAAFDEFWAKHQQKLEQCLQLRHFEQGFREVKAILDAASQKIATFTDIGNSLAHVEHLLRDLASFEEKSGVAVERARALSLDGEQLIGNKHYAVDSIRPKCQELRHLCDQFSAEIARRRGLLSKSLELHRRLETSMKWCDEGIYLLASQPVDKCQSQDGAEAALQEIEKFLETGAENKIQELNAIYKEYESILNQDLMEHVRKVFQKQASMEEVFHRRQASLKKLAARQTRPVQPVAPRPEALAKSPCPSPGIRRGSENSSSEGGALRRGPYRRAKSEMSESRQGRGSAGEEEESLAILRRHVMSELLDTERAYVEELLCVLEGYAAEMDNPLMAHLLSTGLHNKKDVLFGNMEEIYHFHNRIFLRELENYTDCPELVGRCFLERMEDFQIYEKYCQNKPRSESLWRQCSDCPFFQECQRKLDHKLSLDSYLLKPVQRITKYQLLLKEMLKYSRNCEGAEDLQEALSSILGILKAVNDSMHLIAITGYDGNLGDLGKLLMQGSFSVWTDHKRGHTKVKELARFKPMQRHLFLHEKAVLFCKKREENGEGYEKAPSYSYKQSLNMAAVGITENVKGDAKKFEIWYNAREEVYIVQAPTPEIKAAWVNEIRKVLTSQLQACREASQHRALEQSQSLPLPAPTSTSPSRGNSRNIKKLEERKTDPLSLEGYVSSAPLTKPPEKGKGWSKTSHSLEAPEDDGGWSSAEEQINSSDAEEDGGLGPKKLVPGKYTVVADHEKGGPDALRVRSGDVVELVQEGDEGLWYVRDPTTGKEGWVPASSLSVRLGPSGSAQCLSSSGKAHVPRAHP

[2] = target: Phosphatidylinositol 4,5-bisphosphate 3-kinase catalytic subunit gamma isoform (Homo sapiens) (UniProt P48736); test: Inhibition of PIK3CG (unknown origin) assessed as residual activity at 1000 nM by KINOMEscan analysis relative to control
Chain of Phosphatidylinositol 4,5-bisphosphate 3-kinase catalytic subunit gamma isoform (Homo sapiens) (P48736 whole entry, looked up, the tested form may be a part, canonical isoform): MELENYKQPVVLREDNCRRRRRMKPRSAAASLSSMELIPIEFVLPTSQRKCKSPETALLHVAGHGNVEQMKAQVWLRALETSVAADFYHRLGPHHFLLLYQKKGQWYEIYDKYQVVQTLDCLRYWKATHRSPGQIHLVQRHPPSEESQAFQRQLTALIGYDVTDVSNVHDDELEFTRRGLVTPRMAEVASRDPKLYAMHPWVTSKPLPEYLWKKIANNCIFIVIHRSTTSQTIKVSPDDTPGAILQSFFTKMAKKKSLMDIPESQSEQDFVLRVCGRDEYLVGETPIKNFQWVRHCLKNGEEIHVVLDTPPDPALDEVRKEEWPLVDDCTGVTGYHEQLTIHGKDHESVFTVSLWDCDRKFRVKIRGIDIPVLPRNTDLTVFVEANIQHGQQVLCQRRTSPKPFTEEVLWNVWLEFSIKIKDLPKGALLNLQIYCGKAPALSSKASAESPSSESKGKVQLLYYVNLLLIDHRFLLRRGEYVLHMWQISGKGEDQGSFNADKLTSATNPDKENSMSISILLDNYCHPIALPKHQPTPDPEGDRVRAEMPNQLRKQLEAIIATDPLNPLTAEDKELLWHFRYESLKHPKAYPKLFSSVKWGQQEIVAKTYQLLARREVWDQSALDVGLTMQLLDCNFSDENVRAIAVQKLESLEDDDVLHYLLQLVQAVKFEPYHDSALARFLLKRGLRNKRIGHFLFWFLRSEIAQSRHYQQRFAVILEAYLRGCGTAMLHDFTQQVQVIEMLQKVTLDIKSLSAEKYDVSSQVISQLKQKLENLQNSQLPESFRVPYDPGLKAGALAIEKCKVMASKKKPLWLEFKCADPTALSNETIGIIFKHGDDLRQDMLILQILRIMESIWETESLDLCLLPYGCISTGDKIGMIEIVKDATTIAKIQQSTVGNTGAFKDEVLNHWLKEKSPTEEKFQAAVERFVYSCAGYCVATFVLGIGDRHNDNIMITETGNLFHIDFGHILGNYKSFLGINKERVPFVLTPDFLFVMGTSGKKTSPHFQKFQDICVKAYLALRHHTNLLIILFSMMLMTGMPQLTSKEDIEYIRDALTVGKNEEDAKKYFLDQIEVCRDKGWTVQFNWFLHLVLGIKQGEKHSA

[3] = target: Son of sevenless homolog 2 (Homo sapiens, UniProt Q07890); test: Inhibition of N-terminal His10-tagged wild-type recombinant human SOS2 catalytic domain (564 to 1043 residues) expressed in Escherichia coli assessed as reduction in KRAS G12C mutant activation preincubated for 10 mins with KRAS followed by SOS2 addition measured after 30 mins in presence of EDA-GTP-DY-647P1 by HTRF analysis
Chain of Son of sevenless homolog 2 (Q07890 whole entry, looked up, stated change not applied, the tested form may be a part): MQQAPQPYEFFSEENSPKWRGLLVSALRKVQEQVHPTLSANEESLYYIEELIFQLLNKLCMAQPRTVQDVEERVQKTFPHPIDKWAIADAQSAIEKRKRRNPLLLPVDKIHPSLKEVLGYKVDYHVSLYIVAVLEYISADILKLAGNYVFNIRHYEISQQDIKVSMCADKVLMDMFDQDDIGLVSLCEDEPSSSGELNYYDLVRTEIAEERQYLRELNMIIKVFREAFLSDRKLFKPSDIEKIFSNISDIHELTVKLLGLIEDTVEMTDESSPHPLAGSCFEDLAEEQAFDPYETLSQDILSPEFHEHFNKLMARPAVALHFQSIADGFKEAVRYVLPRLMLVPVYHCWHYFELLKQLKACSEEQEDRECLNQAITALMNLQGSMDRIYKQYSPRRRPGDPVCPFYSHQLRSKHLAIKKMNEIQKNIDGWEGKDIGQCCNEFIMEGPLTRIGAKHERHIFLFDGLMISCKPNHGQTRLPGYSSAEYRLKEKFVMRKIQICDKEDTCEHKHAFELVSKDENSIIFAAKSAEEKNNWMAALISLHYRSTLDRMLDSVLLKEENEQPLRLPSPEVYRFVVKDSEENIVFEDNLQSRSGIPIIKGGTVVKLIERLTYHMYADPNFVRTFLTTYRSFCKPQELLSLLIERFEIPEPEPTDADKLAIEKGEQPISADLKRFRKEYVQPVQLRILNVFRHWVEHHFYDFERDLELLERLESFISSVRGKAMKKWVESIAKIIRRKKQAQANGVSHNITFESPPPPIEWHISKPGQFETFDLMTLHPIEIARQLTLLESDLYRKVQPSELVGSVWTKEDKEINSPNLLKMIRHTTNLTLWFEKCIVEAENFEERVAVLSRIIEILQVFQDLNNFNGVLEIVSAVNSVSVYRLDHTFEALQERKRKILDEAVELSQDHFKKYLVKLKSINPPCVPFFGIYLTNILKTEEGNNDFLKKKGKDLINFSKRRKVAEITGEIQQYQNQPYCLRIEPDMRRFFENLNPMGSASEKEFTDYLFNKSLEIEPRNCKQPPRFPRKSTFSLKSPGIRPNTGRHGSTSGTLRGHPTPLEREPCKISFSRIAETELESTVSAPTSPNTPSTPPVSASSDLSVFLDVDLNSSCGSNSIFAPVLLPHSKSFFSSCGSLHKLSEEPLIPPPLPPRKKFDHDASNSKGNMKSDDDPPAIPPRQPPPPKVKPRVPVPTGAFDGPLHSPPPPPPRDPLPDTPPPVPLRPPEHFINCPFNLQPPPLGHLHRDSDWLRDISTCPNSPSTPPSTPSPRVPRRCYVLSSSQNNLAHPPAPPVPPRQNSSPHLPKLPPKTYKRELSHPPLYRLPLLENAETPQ

[4] = target: Calcium-dependent protein kinase 1 (Plasmodium falciparum) (UniProt P62344); test: Inhibition of Plasmodium falciparum CDPK1 assessed as residual activity at 1000 nM by KINOMEscan analysis relative to control
Chain of Calcium-dependent protein kinase 1 (Plasmodium falciparum) (P62344 2-524 limits assumed): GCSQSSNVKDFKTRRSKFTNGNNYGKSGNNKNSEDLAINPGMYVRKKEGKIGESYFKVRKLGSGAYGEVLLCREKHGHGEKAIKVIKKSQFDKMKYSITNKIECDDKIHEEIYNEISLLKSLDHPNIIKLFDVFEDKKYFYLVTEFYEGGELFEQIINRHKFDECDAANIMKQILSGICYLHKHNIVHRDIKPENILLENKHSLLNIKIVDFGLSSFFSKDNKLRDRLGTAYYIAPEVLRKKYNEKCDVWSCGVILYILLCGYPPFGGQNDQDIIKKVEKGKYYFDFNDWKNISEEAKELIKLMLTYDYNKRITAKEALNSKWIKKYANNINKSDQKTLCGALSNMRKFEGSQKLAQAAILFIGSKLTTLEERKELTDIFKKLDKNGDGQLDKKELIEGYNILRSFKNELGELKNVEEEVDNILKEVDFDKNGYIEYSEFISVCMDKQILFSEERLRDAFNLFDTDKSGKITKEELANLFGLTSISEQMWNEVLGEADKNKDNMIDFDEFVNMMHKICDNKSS

MOLM-13 = test: Antiproliferative activity against human MOLM-13 cells assessed as inhibition of cell viability incubated for 72 hrs by Cell Titer Glo assay; type: functional, cell-based; settings: MOLM-13, 72 h
[5] = target: Epidermal growth factor receptor (Homo sapiens, UniProt P00533); test: Inhibition of human EGFR using biotin-aminohexyl-AEEEEYFELVAKKK as substrate preincubated for 15 mins followed by substrate/ATP addition measured after 20 mins by FRET assay
Chain of Epidermal growth factor receptor (P00533 whole entry): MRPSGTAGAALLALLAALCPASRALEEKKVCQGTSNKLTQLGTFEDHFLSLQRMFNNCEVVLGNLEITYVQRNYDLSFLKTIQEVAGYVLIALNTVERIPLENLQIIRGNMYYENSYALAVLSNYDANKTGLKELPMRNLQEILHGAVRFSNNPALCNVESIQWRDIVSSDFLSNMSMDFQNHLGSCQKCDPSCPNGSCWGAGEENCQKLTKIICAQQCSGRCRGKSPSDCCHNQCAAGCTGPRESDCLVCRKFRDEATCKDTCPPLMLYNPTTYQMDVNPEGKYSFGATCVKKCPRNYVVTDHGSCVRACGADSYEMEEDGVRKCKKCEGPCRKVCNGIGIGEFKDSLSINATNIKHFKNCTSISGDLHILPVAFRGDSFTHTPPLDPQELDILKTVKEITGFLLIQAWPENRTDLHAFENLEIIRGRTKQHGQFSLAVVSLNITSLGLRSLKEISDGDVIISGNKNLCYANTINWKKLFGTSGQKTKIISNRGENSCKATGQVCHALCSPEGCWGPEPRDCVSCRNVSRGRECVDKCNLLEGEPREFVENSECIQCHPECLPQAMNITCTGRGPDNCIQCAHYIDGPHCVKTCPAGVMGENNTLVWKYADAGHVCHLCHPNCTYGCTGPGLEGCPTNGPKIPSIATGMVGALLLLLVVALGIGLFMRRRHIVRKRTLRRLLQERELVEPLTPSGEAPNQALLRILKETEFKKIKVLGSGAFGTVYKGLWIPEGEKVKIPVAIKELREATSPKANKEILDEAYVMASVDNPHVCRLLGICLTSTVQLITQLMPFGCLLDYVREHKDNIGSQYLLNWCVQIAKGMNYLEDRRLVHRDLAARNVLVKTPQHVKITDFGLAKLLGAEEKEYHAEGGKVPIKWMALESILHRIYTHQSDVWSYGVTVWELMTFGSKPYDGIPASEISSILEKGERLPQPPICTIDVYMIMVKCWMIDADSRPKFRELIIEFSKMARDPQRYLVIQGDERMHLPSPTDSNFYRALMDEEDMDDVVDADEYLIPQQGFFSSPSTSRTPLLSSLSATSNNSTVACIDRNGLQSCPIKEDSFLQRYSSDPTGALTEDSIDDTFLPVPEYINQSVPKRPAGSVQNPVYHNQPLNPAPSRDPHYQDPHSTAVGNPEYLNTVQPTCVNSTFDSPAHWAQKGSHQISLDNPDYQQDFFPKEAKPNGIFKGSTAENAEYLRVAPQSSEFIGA

[6] = target: Mitogen-activated protein kinase 11 (Homo sapiens) (UniProt Q15759); test: Inhibition of p38-beta (unknown origin) assessed as residual activity at 1000 nM by KINOMEscan analysis relative to control
Chain of Mitogen-activated protein kinase 11 (Homo sapiens) (Q15759 whole entry): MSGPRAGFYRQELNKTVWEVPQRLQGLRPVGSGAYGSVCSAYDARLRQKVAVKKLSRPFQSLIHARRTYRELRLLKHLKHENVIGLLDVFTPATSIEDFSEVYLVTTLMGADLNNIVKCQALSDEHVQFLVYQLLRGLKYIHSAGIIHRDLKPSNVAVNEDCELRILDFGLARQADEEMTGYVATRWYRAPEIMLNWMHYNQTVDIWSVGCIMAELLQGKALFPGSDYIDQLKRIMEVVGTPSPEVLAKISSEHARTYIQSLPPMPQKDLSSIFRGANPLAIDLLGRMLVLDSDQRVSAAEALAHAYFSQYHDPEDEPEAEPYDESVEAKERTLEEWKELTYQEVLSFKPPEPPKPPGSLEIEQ

Structure (SMILES) | IC50 [1] [µM] | Activity [2] [%] | IC50 [3] [µM] | Activity [4] [%] | IC50 (MOLM-13) [µM] | IC50 [5] [µM] | Activity [6] [%]
COc1cc2nc(C)nc(N[C@H](C)c3cccc(-c4cn[nH]c4)c3)c2cc1OC | > 20 | 97 | > 20 | 81 | 3.54 | > 20 | 97
COc1cc2ncnc(N[C@H](C)c3cccc4ccccc34)c2cc1OC | > 20 | 83 | > 20 | 62 | 2.53 | 0.58 | 96
CNCc1ccccc1-c1csc([C@@H](C)Nc2nc(C)nc3cc(OC)c(OC)cc23)c1 [BAY-293] | > 20 |  | > 20 |  | 0.995 | > 20 | 
